Results from the supplement of paper PMC13380429.

Assays:
Settings in all cases: 72 h
Vero E6 [1] = assay: relative viability EC50 (midpoint between 100% and the lowest measured viability); higher = less toxic
Caco-2 [2] = assay: as above
Calu-3 [3] = assay: as above
U2OS [4] = assay: as above
HepG2 [5] = assay: as above
Vero E6 [6] = assay: drug sensitivity score (DSS) for viability; higher = more toxic; extreme values may be limits of the assay
Caco-2 [7] = assay: as above
Calu-3 [8] = assay: as above
U2OS [9] = assay: as above
HepG2 [10] = assay: as above
Vero E6 [11] = assay: cell viability relative to DMSO; higher = less toxic
Caco-2 [12] = assay: as above
Calu-3 [13] = assay: as above
U2OS [14] = assay: as above
HepG2 [15] = assay: as above

| SMILES | relative viability EC50 (Vero E6 [1]) | relative viability EC50 (Caco-2 [2]) | relative viability EC50 (Calu-3 [3]) | relative viability EC50 (U2OS [4]) | relative viability EC50 (HepG2 [5]) | drug sensitivity score (Vero E6 [6]) | drug sensitivity score (Caco-2 [7]) | drug sensitivity score (Calu-3 [8]) | drug sensitivity score (U2OS [9]) | drug sensitivity score (HepG2 [10]) | cell viability (Vero E6 [11]; 1 nM) | cell viability (Vero E6 [11]; 10 nM) | cell viability (Vero E6 [11]; 100 nM) | cell viability (Vero E6 [11]; 1000 nM) | cell viability (Vero E6 [11]; 10000 nM) | cell viability (Caco-2 [12]; 1 nM) | cell viability (Caco-2 [12]; 10 nM) | cell viability (Caco-2 [12]; 100 nM) | cell viability (Caco-2 [12]; 1000 nM) | cell viability (Caco-2 [12]; 10000 nM) | cell viability (Calu-3 [13]; 1 nM) | cell viability (Calu-3 [13]; 10 nM) | cell viability (Calu-3 [13]; 100 nM) | cell viability (Calu-3 [13]; 1000 nM) | cell viability (Calu-3 [13]; 10000 nM) | cell viability (U2OS [14]; 1 nM) | cell viability (U2OS [14]; 10 nM) | cell viability (U2OS [14]; 100 nM) | cell viability (U2OS [14]; 1000 nM) | cell viability (U2OS [14]; 10000 nM) | cell viability (HepG2 [15]; 1 nM) | cell viability (HepG2 [15]; 10 nM) | cell viability (HepG2 [15]; 100 nM) | cell viability (HepG2 [15]; 1000 nM) | cell viability (HepG2 [15]; 10000 nM) |
| --- | --- | --- | --- | --- | --- | --- | --- | --- | --- | --- | --- | --- | --- | --- | --- | --- | --- | --- | --- | --- | --- | --- | --- | --- | --- | --- | --- | --- | --- | --- | --- | --- | --- | --- | --- |
| C[C@@H]1NC(C)(C)CO[C@@]1(O)c1cccc(Cl)c1 [radafaxine] | > 10 µM | > 10 µM | > 10 µM | > 10 µM | > 10 µM | 0 | 0 | 0 | 0 | 0 | 100% | 97.9% | 106% | 96.4% | 105% | 90.2% | 94.4% | 97.4% | 99.9% | 95% | 95.4% | 92.4% | 94.1% | 101% | 90.3% | 101% | 103% | 101% | 102% | 97.5% | 98.3% | 99.7% | 97.6% | 98.4% | 90.3% |
| O=C(NC1CCC1)c1ccc(C#Cc2cccc(F)c2)nc1 | > 10 µM | > 10 µM | > 10 µM | > 10 µM | > 10 µM | 0 | 0 | 0 | 0 | 0 | 98.6% | 98.5% | 96.8% | 90% | 92.1% | 92.4% | 102% | 96.5% | 98.9% | 95.4% | 96.1% | 98.6% | 98.8% | 103% | 90.7% | 104% | 102% | 96.3% | 100% | 91.6% | 91.7% | 93.9% | 89.4% | 85.8% | 93% |
| Cc1ccc(Nc2c(F)cccc2Cl)c(CC(=O)O)c1 [lumiracoxib] | > 10 µM | > 10 µM | > 10 µM | > 10 µM | > 10 µM | 0 | 0 | 0 | 0 | 0 | 95.4% | 94.8% | 105% | 100% | 100% | 93% | 97% | 95% | 100% | 107% | 93.7% | 93.9% | 90.8% | 98.9% | 104% | 94.1% | 98.7% | 94.8% | 103% | 105% | 97% | 103% | 109% | 106% | 118% |
| C[C@@H](c1ccc2nccn2c1)n1nnc2ncc(-c3cnn(C)c3)nc21 [savolitinib] | > 10 µM | > 10 µM | > 10 µM | > 10 µM | > 10 µM | 0 | 0 | 0 | 0 | 0.8 | 102% | 102% | 96.5% | 98.9% | 97.4% | 103% | 92.9% | 95.4% | 100% | 91.8% | 99.3% | 85.2% | 94.4% | 95.5% | 95.3% | 101% | 103% | 98.9% | 96.9% | 95.8% | 99.5% | 96.2% | 96.8% | 89.4% | 83.4% |
| O=C(NCCNCC(O)COc1ccc(O)cc1)N1CCOCC1 (stereo not given) [xamoterol] | > 10 µM | > 10 µM | > 10 µM | > 10 µM | > 10 µM | 0 | 0 | 0 | 0 | 0 | 93.8% | 98.5% | 98% | 98.5% | 95.7% | 95.8% | 96.7% | 99.9% | 90.3% | 99.5% | 106% | 104% | 110% | 100% | 93.6% | 99.7% | 91.3% | 96.5% | 99.1% | 101% | 99.1% | 99.4% | 96.2% | 102% | 102% |
| C=C(C)[C@@H]1[C@H]2OC(=O)[C@@H]1[C@]1(O)C[C@H]3O[C@]34C(=O)O[C@H]2[C@]14C [picrotoxinin] | > 10 µM | > 10 µM | > 10 µM | > 10 µM | > 10 µM | 0 | 0 | 0 | 0 | 0 | 97.2% | 95.6% | 97.5% | 102% | 99.5% | 108% | 102% | 99.2% | 103% | 96.1% | 104% | 107% | 92.8% | 94.5% | 92.6% | 101% | 98.4% | 98.3% | 98.4% | 97.2% | 109% | 108% | 106% | 97.4% | 98.4% |
| Cc1cn2c(N)c(Cl)cc(C(=O)NCC3CCN(CC(C)C)CC3)c2n1 | > 10 µM | > 10 µM | > 10 µM | > 10 µM | > 10 µM | 0 | 0 | 0 | 0 | 0.5 | 88% | 101% | 90.2% | 96.5% | 99.2% | 103% | 83.1% | 103% | 99.7% | 107% | 102% | 96.5% | 99.9% | 93.4% | 99.9% | 101% | 95.1% | 102% | 97.6% | 95.4% | 107% | 99.6% | 102% | 88.1% | 97.1% |
